Test results published in the NIST ThermoML archive (doi:10.1021/acs.jced.7b00433).
Numbers after ± are expanded uncertainties.

Experiment: xn = mol fraction of the nth substance listed
Conditions: Drop volume

CCCC(N)C(=O)O (stereo not drawn) [DL-2-aminopentanoic acid] + O
surface tension liquid-gas [mN/m]
Conditions	x1 = 0.000173	x1 = 0.000347	x1 = 0.000561	x1 = 0.00104	x1 = 0.001386	x1 = 0.001733	x1 = 0.002079	x1 = 0.002641
293.15 K	72.55 ± 0.28	72.51 ± 0.28	72.43 ± 0.28	72.37 ± 0.28	72.31 ± 0.28	72.25 ± 0.28	72.16 ± 0.28	72.06 ± 0.28
298.15 K	71.84 ± 0.27	71.8 ± 0.27	71.71 ± 0.27	71.63 ± 0.27	71.53 ± 0.27	71.47 ± 0.27	71.41 ± 0.27	71.25 ± 0.27
303.15 K	71.16 ± 0.27	71.13 ± 0.27	71.01 ± 0.27	70.91 ± 0.27	70.79 ± 0.27	70.71 ± 0.27	70.65 ± 0.27	70.5 ± 0.27
308.15 K	70.35 ± 0.27	70.31 ± 0.27	70.2 ± 0.27	70.1 ± 0.27	70.02 ± 0.27	69.85 ± 0.27	69.78 ± 0.27	69.63 ± 0.27
313.15 K	69.39 ± 0.27	69.34 ± 0.27	69.22 ± 0.27	69.07 ± 0.27	69 ± 0.27	68.86 ± 0.27	68.75 ± 0.27	68.58 ± 0.27

CC(N)C(=O)O (stereo not drawn) [DL-2-aminopropanoic acid] + O
surface tension liquid-gas [mN/m]
Conditions	x1 = 0.000176	x1 = 0.000353	x1 = 0.000705	x1 = 0.001055	x1 = 0.001406	x1 = 0.001752	x1 = 0.002105	x1 = 0.002642
293.15 K	72.52 ± 0.28	72.53 ± 0.28	72.55 ± 0.28	72.58 ± 0.28	72.59 ± 0.28	72.62 ± 0.28	72.64 ± 0.28	72.68 ± 0.28
298.15 K	71.83 ± 0.27	71.86 ± 0.27	71.9 ± 0.27	71.95 ± 0.27	72 ± 0.28	72.07 ± 0.28	72.1 ± 0.28	72.18 ± 0.28
303.15 K	71.11 ± 0.27	71.15 ± 0.27	71.25 ± 0.27	71.35 ± 0.27	71.44 ± 0.27	71.5 ± 0.27	71.61 ± 0.27	71.72 ± 0.27
308.15 K	70.4 ± 0.27	70.42 ± 0.27	70.57 ± 0.27	70.7 ± 0.27	70.83 ± 0.27	70.94 ± 0.27	71.09 ± 0.27	71.28 ± 0.27
313.15 K	69.48 ± 0.27	69.59 ± 0.27	69.73 ± 0.27	69.87 ± 0.27	70.02 ± 0.27	70.2 ± 0.27	70.36 ± 0.27	70.57 ± 0.27

O [water] + CC(N)C(=O)O
x2 = 0
Conditions	surface tension liquid-gas [mN/m]
293.15 K	72.5 ± 0.28
298.15 K	71.73 ± 0.27
303.15 K	71.04 ± 0.27
308.15 K	70.3 ± 0.27
313.15 K	69.42 ± 0.27

O [water] + CCC(N)C(=O)O
x2 = 0
Conditions	surface tension liquid-gas [mN/m]
293.15 K	72.5 ± 0.28
298.15 K	71.73 ± 0.27
303.15 K	71.1 ± 0.27
308.15 K	70.27 ± 0.27
313.15 K	69.5 ± 0.27

O [water] + CCCC(N)C(=O)O
x2 = 0
Conditions	surface tension liquid-gas [mN/m]
293.15 K	72.58 ± 0.28
298.15 K	71.73 ± 0.27
303.15 K	71.21 ± 0.27
308.15 K	70.4 ± 0.27
313.15 K	69.46 ± 0.27

O [water] + CCCCC(N)C(=O)O
x2 = 0
Conditions	surface tension liquid-gas [mN/m]
293.15 K	72.5 ± 0.28
298.15 K	71.73 ± 0.27
303.15 K	71 ± 0.27
308.15 K	70.23 ± 0.27
313.15 K	69.42 ± 0.27

O [water] + NCC(=O)O
x2 = 0
Conditions	surface tension liquid-gas [mN/m]
293.15 K	72.45 ± 0.28
298.15 K	71.73 ± 0.27
303.15 K	71 ± 0.27
308.15 K	70.22 ± 0.27
313.15 K	69.45 ± 0.27
